The text below walks through data of US4861774A, “Method of treating tumors using tetracyclo compounds” (priority 1984, dated 1989).

One data set concerns Human LX-1 lung. Kind of data set: Human LX-1 lung tumor in nude mice (Test 9). The format is in vivo, human (in BALB/c nu/nu mice). The note with it: 18.0 mg/kg i.v., days 12, 16 & 20; evaluation day 28. On the procedure: Human LX-1 lung or MX-1 mammary (each fragment, 2×2×2 mm), maintained s.c. by serial passage in male BALB/c nu/nu mice, was implanted s.c. to male BALB/c nu/nu mice on day 0, and the test compounds or vehicle were given i.v. to the mice once a day on specified days in Table 9.
Tumor weight was calculated as follows: (Tumor length and width were measured by caliper.)
Tumor weight (mg)=1/2×a×b^2, where a represents length and b represents width (mm).
Tumor weights (initial) and (last) were calculated on the first injection day (just before dosing) and on day 21, 27 or 28 (the last evaluation day), respectively.
Five mice were used for each test group and 5 or 10 mice were used for each vehicle-treated control group.
Drug efficacy was expressed as percentage of mean tumor weight of the test group to that of the control group. [formula]

In a further data set the test system is MM46 Mammary carcinoma. The data set can be described thus: MM46 Mammary carcinoma in mice (Test 6). The format is in vivo, mice (C3 H/HeN). The settings on record: 3.2 mg/kg i.p., days 1, 5 and 9; median survival time. The source says:
MM46 Mammary carcinoma (1×10^6 cells), maintained i.p. by serial passage in female C3 H/HeN mice, was implanted i.p. to female C3 H/HeN mice on day 0, and the test compounds or vehicle were given i.p. to the mice once a day on days 1, 5 and 9.
Ten mice were used for each test group and twenty mice were used for each vehicle-treated control group.
Drug efficacy against the ascitic tumors is expressed as percentage of the median survival time of the test group to that of the control group. [formula]

In data set [1] the test system is Escherichia coli NIHJ JC-2. Kind of data set: Antimicrobial activity, serial broth dilution (Test 2), Escherichia coli. The format is cell-based. The settings on record: NIHJJC2, overnight incubation at 37° C. On the procedure: Antimicrobial activity of the FR-900482 substance against some bacteria was determined by a serial broth dilution method in bouillon media for bacteria. Minimum inhibitory concentrations (MIC) were expressed in terms of μg/ml after overnight incubation at 37° C.
On the technique in general: Broth dilution looks for growth in wells or tubes with falling amounts of substance.

The nature of data set [2]: Mixture ratios of the two components under various pH values. The format is physicochemical. The note with it: pH 1.0, 0.1 N hydrochloric acid. The procedure:
The FR-900482 substance was dissolved in various buffer solutions so as to make its concentration to 10 mg/ml. After allowing to stand for 2 hours, 4 μl of each of these solutions was subjected to silica gel thin layer chromatography using a mixture of chloroform and methanol (4:1, v/v) as a developing solvent. After developing, the mixture ratios of the two components were calculated by a chromatoscanner at 254 nm, the results of which are shown in the following.

Values after ≈ are worked out from the molar mass of the structure shown.

Consider `NC(=O)OCC1c2c(O)cc(C=O)cc2N2CC3NC3C1(O)O2` (stereo not drawn) [FR-900482 substance, 4-Formyl-6,9-dihydroxy-14-oxa-1,11-diazatetracyclo[7.4.1.0^2,7.0^10,12]tetradeca-2,4,6-trien-8-ylmethyl carbamate], for which the Solubility result is given as “Insoluble” in the data set “Solubility” (acetone); “Insoluble” in the data set “Solubility” (chloroform); “Insoluble” in the data set “Solubility” (ethyl acetate); “Soluble” in the data set “Solubility” (methanol); “Soluble” in the data set “Solubility” (water). Also, in the data set with Human LX-1 lung, the “1-T"/C"” value is reported as 97%. In the data set on MM46 Mammary carcinoma, the T/C is listed as greater than 300%. Also, the MIC in data set [1] worked out at 50 µg/mL (≈ 156 µM). For the same molecule, the “Ratios of the two components” value in data set [2] is recorded as “single component”.

What is called T/C is the ratio of treated to control. As a reminder, the MIC is the lowest concentration that inhibits growth of the organism.
